Read-outs that look alike come from different tables or passages of the source.
What was measured:
OTR = biological target: T1, OTR (Homo sapiens, UniProt P30559); experiment: Ca2+ mobilization in cells stably expressing OTR (FLIPR, antagonist mode); assay type: cell-based; conditions: OTR/HEK293 stably transfected cell line
T1 construct: expressed in transfected cells; host or cells: OTR/HEK293 stably transfected cell line
T1 sequence (P30559 1-389): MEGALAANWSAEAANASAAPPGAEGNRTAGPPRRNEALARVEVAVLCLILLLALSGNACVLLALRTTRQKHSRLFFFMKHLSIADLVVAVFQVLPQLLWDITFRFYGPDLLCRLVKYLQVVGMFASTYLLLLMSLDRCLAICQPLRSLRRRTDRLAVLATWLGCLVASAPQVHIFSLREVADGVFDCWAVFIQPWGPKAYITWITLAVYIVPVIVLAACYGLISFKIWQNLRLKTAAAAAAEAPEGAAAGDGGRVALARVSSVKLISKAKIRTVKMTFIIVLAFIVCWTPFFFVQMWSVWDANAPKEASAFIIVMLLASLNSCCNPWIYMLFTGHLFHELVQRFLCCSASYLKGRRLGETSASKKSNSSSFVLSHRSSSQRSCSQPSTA
How it was run: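 Antagonist mode: test compounds in 10-point 3-fold series were added on FLIPR to Fluo-4-loaded HEK293 cells stably expressing OTR, followed by reference agonist at its EC80, determined beforehand. The Max-Min calcium fluorescence response was fitted in Prism.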

V1aR = biological target: T2, V1aR (Homo sapiens, UniProt P37288); experiment: Ca2+ mobilization in cells stably expressing V1aR (FLIPR, antagonist mode); assay type: cell-based; conditions: V1a-CHO stably transfected cell line
T2 construct: expressed in transfected cells; host or cells: V1a-CHO stably transfected cell line
Text: Test Example 2. Determination of the Effect of the Compound of the Present Disclosure on Ca^2+ Mobilization in Cells Stably Expressing V1aR
To measure the antagonistic effect of the compound of the present disclosure on V1aR activity expressed in the V1a-CHO stably transfected cell line.
• F-12 (Hyclone, SH30026.01) • FLIPR CALCIUM 6 ASSAY KIT (Molecul Device, R8191) • Fetal Bovine Serum (FBS) (AusGeneX, FBS500-S) • Hygromycin B (Solarbio, H8080-1g) • DMSO (Sigma, D4540) • HBSS (Gibco 14025-092) • Probenecid (MCE, HY—B0545) • 0.36 mL 96 Round V-bottom Deep Well Plates for Laboratory (Biaosen P-0.36-BSA-96) • 384-well conical bottom polypropylene plate (Nunc, 264573) • Corning® 384-well Flat Clear Bottom Black Polystyrene TC-treated Microplates (Corning 3764)
• Biological safety cabinet (ECSO, AC2-6S1-TC) • Carbon dioxide cell incubator (ECSO, CCI-170B-8) • Inverted microscope (Olympus, CKX53) • Microplate low-speed centrifuge (Xiangzhi, TD5B) • FLIPR® Penta (Molecul Device, 5.0)
• 1. Cell plating: V1a-CHO cells were digested and harvested, resuspended and counted, and then inoculated into a 384-well cell plate at a density of: 1.2×10^4 cells/25 μL/well. The cell plate was then incubated in an incubator at 37° C. with 5% CO2 for about 16-20 h. • 2. The next day: after preparing Assay Buffer, 20× Component A was thawed to room temperature, diluted with Assay buffer to 1× loading buffer, and placed at room temperature for later use. • 3. The medium was removed from the cell plate, and 40 μL of 1× loading buffer was quickly added to each well. After centrifugation, the cell plate was incubated at 37° C. in the dark for 120 minutes. • 4. The serially diluted positive compound, serially diluted test compound, and agonist working solution were formulated. After mixing the serially diluted positive compound/serially diluted test compound with the agonist at a 1:1 ratio, 20 μL per well was transferred to a 384-well compound source plate. • 5. The cell plate, agonist source plate, and pipette tips were placed into their respective positions in the FLIPR instrument. Using FLIPR Tetra, 10 μL of the diluted agonist from Step 4 was added to each test well, and the data were collected at a wavelength of 515 nm-575 nm. • 6. The signal values were plotted against the compound concentrations, and the curve fitting and IC50 calculation were performed using the nonlinear regression method of GraphPad Prism software.

[1] = Blood-brain distribution determination in SD rats; assay type: in vivo; conditions: female SD rats, oral, 10 mg/kg
Experimental: Test Example 4: Blood-Brain Distribution Determination in SD Rats
In this study, female SD rats were selected as test animals. The LC/MS/MS method was used to quantitatively determine the drug concentrations of the test compounds in plasma and brain tissues at three different time points (0.5 h, 2 h, 4 h or 6 h) after oral administration (5 mg/kg or 10 mg/kg) in rats, so as to evaluate the pharmacokinetic profile of the test drugs in rats.
(§1) The example compounds of the present disclosure, made in house.
(§2) SD rats (female, 180-220 g, 6-8 weeks old, purchased from Beijing Vital River Laboratory Animal Technology Co., Ltd., with animal production license number SCXK (Beijing) 2021-0006).
Vehicle for oral administration: 5% DMSO+95% PEG400 or a mixture of (50% Labrasol+50% Water).
The test compound, formulated as a clear solution or suspension, was administered to overnight-fasted SD rats via oral gavage. For oral gavage, blood samples (0.25 mL) were collected via jugular vein puncture at pre-dose (0 h) and 0.5 h, 2 h, 4 h or 6 h post-dose. The samples were placed into sodium heparin anticoagulant tubes. After collection, the blood samples were placed on wet ice and centrifuged within 1 hour to separate the plasma. The separated plasma was stored frozen in a −80° C. freezer. After blood collection, the animals were euthanized by cervical dislocation. The whole brain tissue was dissected out. The collected brain tissue was first rinsed with physiological saline, blotted dry with absorbent paper, and then stored frozen in a −80° C. freezer. Prior to analysis, the brain tissue samples and plasma samples were taken out from the −80° C. freezer. After the brain tissue samples were completely thawed, a given amount of brain tissue was weighed, and 50% methanol/water was added for homogenization. Drug concentrations in plasma and brain tissues were determined using the LC-MS/MS method, and the relevant pharmacokinetic parameters were calculated using the non-compartmental model with linear-log trapezoidal method in Phoenix WinNonlin 8.2.0 pharmacokinetic software.

[2] = Pharmacokinetic determination in SD rats; assay type: in vivo; conditions: rat, female SD rats, plasma; for AUC(0-t): read-out: Area under the curve AUC0-t; for half-life: read-out: Half-life T1/2 (converted)
Experimental: Test Example 3: Pharmacokinetic Determination in SD Rats
In this study, female SD rats were selected as test animals. The LC/MS/MS method was used to quantitatively determine the plasma drug concentrations of the test compounds at different time points after intravenous injection (2 mg/kg) or oral administration (5 mg/kg) in rats, so as to evaluate the pharmacokinetic profile of the test drugs in rats.
as §1, §2
Vehicle for intravenous administration: 5% DMSO+10% Solutol+85% Saline.
Vehicle for oral administration: 5% DMSO+95% PEG400.
The test compound, formulated as a clear solution or suspension, was administered to overnight-fasted SD rats via tail vein injection or oral gavage. For intravenous administration, blood samples (0.25 mL) were collected via jugular vein puncture at pre-dose (0 h) and 0.083, 0.25, 0.5, 1, 2, 4, 6, 8, and 24 h post-dose. The samples were placed into sodium heparin anticoagulant tubes, and the mixture was vortexed thoroughly and centrifuged at 6,000 rpm for 3 minutes at 4° C. For oral gavage, blood samples were collected via jugular vein puncture at pre-dose (0 h) and 0.083, 0.25, 1, 2, 4, 6, 8, and 24 h post-dose. The samples were placed into sodium heparin anticoagulant tubes, and the mixture was vortexed thoroughly and centrifuged at 6,000 rpm for 3 minutes. Plasma drug concentrations were determined using the LC-MS/MS method, and the relevant pharmacokinetic parameters were calculated using the non-compartmental model with linear-log trapezoidal method in Phoenix WinNonlin 8.2.0 pharmacokinetic software.

T2 sequence (P37288 whole entry, species assumed): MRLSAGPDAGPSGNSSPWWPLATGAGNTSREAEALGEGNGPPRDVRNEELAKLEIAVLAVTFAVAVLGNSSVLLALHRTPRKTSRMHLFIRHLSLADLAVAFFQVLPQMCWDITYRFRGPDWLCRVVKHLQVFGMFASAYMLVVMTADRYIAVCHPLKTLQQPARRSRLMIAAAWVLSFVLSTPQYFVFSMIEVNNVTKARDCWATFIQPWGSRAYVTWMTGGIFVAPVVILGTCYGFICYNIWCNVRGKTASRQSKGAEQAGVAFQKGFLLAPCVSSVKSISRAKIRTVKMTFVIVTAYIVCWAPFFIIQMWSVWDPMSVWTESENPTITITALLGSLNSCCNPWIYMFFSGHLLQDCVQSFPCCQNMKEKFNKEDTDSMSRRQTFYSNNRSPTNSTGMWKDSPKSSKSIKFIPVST

Row | IC50 (OTR) [µM] | IC50 (V1aR) [µM] | Structure (SMILES) | further results
1 | 0.0161 | 9.06 | CO/N=C1/C[C@@H](CO)N(C(=O)c2ccc(-c3ccc(F)c(C#N)c3C)c3c2OCO3)C1 [Example C0123, (S, Z)-6-Fluoro-3-(7-(2-(hydroxymethyl)-4-(methoxyimino)pyrrolidine-1-carbonyl)benzo[d][1,3]dioxolan-4-yl)-2-methylbenzonitrile] | 
2 | 0.0114 | 8.37 | CO/N=C1\C[C@@H](CO)N(C(=O)c2ccc(-c3cccc(C#N)c3C)c3c2OCCO3)C1 [Example C0132, (S,E)-3-(8-(2-(Hydroxymethyl)-4-(methoxyimino)pyrrolidine-1-carbonyl)-2,3-dihydrobenzo[b][1,4]dioxin-5-yl)-2-methylbenzonitrile] | 
3 | 0.00819 | 2.35 | CO/N=C1/C[C@@H](CO)N(C(=O)c2ccc(-c3cccc(C#N)c3C)c3c2OCCO3)C1 [Example C0133, (S,Z)-3-(8-(2-(Hydroxymethyl)-4-(methoxyimino)pyrrolidine-1-carbonyl)-2,3-dihydrobenzo[b][1,4]dioxin-5-yl)-2-methylbenzonitrile] | 
4 | 0.00707 | 4.05 | CO/N=C1/C[C@@H](CO)N(C(=O)c2ccc(-c3c(F)ccc(C#N)c3C)c3c2OCCO3)C1 [Example C0150, 4-Fluoro-3-(8-((S,Z)-2-(hydroxymethyl)-4-(methoxyimino)pyrrolidine-1-carbonyl)-2,3-dihydrobenzo[b][1,4]dioxin-5-yl)-2-methylbenzonitrile] | 
5 | 0.00532 | 1.61 | CO/N=C1/C[C@@H](CO)N(C(=O)c2ccc(-c3cccc(C#N)c3Cl)c3c2OCCO3)C1 [Example C0154, (S,Z)-2-Chloro-3-(8-(2-(hydroxymethyl)-4-(methoxyimino)pyrrolidine-1-carbonyl)-2,3-dihydrobenzo[b][1,4]dioxin-5-yl)benzonitrile] | 
6 | 0.0172 | 0.52 | CO/N=C1/C[C@@H](CO)N(C(=O)c2ccc(-c3cccc(C#N)c3C)c(F)c2)C1 [Example C0158, (S,Z)-2′-Fluoro-4′-(2-(hydroxymethyl)-4-(methoxyimino)pyrrolidine-1-carbonyl)-2-methyl-[1,1′-biphenyl]-3-carbonitrile] | 
7 | 0.0219 | 0.529 | CO/N=C1/C[C@@H](CO)N(C(=O)c2cc(F)c(-c3cccc(C#N)c3C)c3c2OCCO3)C1 [Example C0160, 3-(6-Fluoro-8-((S,Z)-2-(hydroxymethyl)-4-(methoxyimino)pyrrolidine-1-carbonyl)-2,3-dihydrobenzo[b][1,4]dioxin-5-yl)-2-methylbenzonitrile] | 
8 | 0.00835 | 0.747 | CO/N=C1/C[C@@H](CO)N(C(=O)c2cc(F)c(-c3cccc(C#N)c3C)c3c2OCO3)C1 [Example C0162, 3-(5-Fluoro-7-((S,Z)-2-(hydroxymethyl)-4-(methoxyimino)pyrrolidine-1-carbonyl)benzo[d][1,3]dioxol-4-yl)-2-methylbenzonitrile] | 
9 | 0.0206 | 1.87 | CO/N=C1/C[C@@H](C(C)(C)O)N(C(=O)c2ccc(-c3cccc(C#N)c3C)cc2)C1 [Example C0164, (S,Z)-4′-(2-(2-Hydroxypropan-2-yl)-4-(methoxyimino)pyrrolidine-1-carbonyl)-2-methyl-[1,1′-biphenyl]-3-carbonitrile] | 
10 |  | 0.389 | CO/N=C1/C[C@@H](CO)N(C(=O)c2ccc(-c3ccccc3C)cc2)C1 [Nolasiban, reference compound] | Brain tissue area under the curve AUC0-t [1]: 18727 ng·h/g; Kp ([1]; rat, brain/plasma, read-out: Brain/plasma exposure ratio): 3.29; AUC(0-t) ([1]; rat, plasma, read-out: Plasma area under the curve AUC0-t): 5.7 µg·h/mL; AUC(0-t) ([2]; 2 mg/kg, IV (2 mpk)): 3.05 µg·h/mL; AUC(0-t) ([2]; 5 mg/kg, PO (5 mpk)): 7.71 µg·h/mL; clearance ([2]; 2 mg/kg, IV (2 mpk), read-out: Clearance Cl): 0.666 L/h/kg; half-life ([2]; 2 mg/kg, IV (2 mpk)): 2.8 h; half-life ([2]; 5 mg/kg, PO (5 mpk)): 2.71 h
